The source of these data is US10501516B2, “Peptide compound” (TAKEDA PHARMACEUTICAL COMPANY LIMITED, priority 2016, dated 2019).

The target in one assay is T1, human NPY2R (Homo sapiens, UniProt P49146).
T1 construct: expressed in transfected cells; host or cells: CHO-K1 Cre-luc reporter cells (pAKKO1114/hNPY2R#481 No. 88 cells)
T1 sequence (P49146 1-381): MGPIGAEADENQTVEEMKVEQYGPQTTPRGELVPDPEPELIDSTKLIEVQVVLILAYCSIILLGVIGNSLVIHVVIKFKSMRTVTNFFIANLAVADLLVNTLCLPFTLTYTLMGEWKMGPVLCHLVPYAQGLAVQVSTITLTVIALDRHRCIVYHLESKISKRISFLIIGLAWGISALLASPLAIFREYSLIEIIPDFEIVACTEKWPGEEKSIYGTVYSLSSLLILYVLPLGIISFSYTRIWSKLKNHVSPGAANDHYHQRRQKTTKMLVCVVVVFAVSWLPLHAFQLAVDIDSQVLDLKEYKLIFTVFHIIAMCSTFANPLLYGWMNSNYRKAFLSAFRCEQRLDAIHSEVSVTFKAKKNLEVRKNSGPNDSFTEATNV
Description: Reporter assay of human NPY2R gene (agonist activity, decrease in intracellular cAMP as index). It is filed as cell-based. The conditions noted are these: Cre-luc reporter, hNPY2R CHO-K1 cells, forskolin 1.2 μM, 4 hours; read-out: Agonist activity (EC50) hY2R. The text has this:
(§1) Evaluation of Agonist Activity Against Human NPY2R, Human GIPR, and Human GLP-1R Using Change in Intracellular cAMP Concentration as Index
The human NPY2R gene having a sequence identical to the sequence of GenBank Accession No. AC104407 was cloned into pAKKO1114 vector to prepare hNPY2R/pAKKO1114. Next, pGL4.29 (Promega) was introduced to CHO-K1 cells, which were then screened with hygromycin to construct Cre-luc reporter cells. These cells were cotransfected with hNPY2R/pAKKO1114 and pcDNA3.1 (Life Technologies Corp.), and the cells were screened with geneticin. Next, a cell line induced to express luciferase, i.e., pAKKO1114/hNPY2R#481 No. 88 cells, were selected from the obtained transformants by the addition of human PYY (3-36).
The pAKKO1114/hNPY2R#481 No. 88 cells were inoculated at a cell density of 25 μL/well (5,000 cells/well) to a 384-well white plate (Corning, 3570), and cultured overnight in Ham F12 medium containing 10% fetal bovine serum, 100 U/mL penicillin and 100 μg/mL streptomycin in a CO2 incubator of 37° C. On the next day, the medium was removed, and an assay medium (Ham F12 medium containing 0.1% BSA, 100 U/mL penicillin and 100 μg/mL streptomycin) containing forskolin (final concentration: 1.2 μM) was added at a concentration of 25 μL/well to the cells. Next, an assay medium containing a test compound was added at a concentration of 5 μL/well to the cells, and the resultant cells were incubated for 4 hours in a CO2 incubator of 37° C. to give the final concentration of 1 μM. SteadyGlo (Promega) was added thereto at a concentration of 30 μL/well, and the mixture was left standing for 20 minutes with light shielded. The luciferase activity was measured using a plate reader Envision (PerkinElmer). The luciferase activity from the addition of DMSO was defined as 100%, and the luciferase activity from the addition of 1 μM human PYY(3-36) instead of the test compound was defined as 0%. The NPY2R agonist activity was calculated with a decrease in intracellular cAMP concentration as an index.
In general terms: In a reporter assay the amount or activity of a reporter protein is the signal.

A further assay addresses T2, human GIPR (Homo sapiens, UniProt P48546).
T2 construct: expressed in transfected cells; host or cells: CHO-K1 Cre-luc reporter cells (hGIPR/CHO-K1, also called hGIPR/CRE-LUC/CHO-K1)
T2 sequence (P48546 22-466): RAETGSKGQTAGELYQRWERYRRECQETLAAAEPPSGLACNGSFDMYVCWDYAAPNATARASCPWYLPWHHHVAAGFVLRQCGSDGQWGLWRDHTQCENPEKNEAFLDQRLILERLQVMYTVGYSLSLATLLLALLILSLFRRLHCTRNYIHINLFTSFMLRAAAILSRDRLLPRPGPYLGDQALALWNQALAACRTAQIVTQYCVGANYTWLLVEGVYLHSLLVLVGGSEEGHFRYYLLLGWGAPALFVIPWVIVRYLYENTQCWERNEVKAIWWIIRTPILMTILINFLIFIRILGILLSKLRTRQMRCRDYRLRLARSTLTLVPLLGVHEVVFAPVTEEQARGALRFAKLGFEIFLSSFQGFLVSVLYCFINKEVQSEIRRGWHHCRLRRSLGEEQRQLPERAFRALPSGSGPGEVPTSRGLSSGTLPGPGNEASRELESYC
Description: Reporter assay of human GIPR gene (agonist activity, intracellular cAMP as index). It is filed as cell-based. The note with it: Cre-luc reporter, hGIPR/CHO-K1 cells, 4 hours.
Source text: as §1
The human GIPR gene having a sequence identical to the sequence of GenBank Accession No. U39231 was cloned into pMSRα-neo vector to prepare hGIPR/pMSRα-neo. This vector was introduced to the Cre-luc reporter cells obtained in (1) to obtain transformants. Next, a cell line induced to express luciferase, i.e., hGIPR/CHO-K1 cells, were selected from the obtained transformants by the addition of GIP.
The hGIPR/CRE-LUC/CHO-K1 cells or the hGLP-1R/Crel cells were inoculated at a cell density of 25 μL/well (5,000 cells/well) to a 384-well white plate (Corning, 3570), and cultured overnight in Ham F12 medium containing 10% fetal bovine serum, 100 U/mL penicillin and 100 μg/mL streptomycin in a CO2 incubator of 37° C. On the next day, a medium containing a test compound was added at a concentration of 5 μL/well to the cells, and the resultant cells were incubated for 4 hours in a CO2 incubator of 37° C. to give the final concentration of 1 μM. SteadyGlo (Promega) was added thereto at a concentration of 30 μL/well, and the mixture was shaken with light shielded. After 30 minutes, the luciferase activity was measured using a plate reader Envision (PerkinElmer). For the GIPR agonist activity, the luciferase activity in the presence of 10 μM GIP was defined as 100%, and the luciferase activity from the addition of DMSO instead of the test compound was defined as 0%. The GIPR agonist activity was calculated with a rise in intracellular cAMP concentration as an index.

In a further assay the test system is male C57BL/6J mouse. Put plainly: Evaluation of feeding suppressive action in mice. It is filed as in vivo. The note with it: 3-days cumulative food consumption vs solvent control. The procedure, abridged:
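Male C57BL/6J mice, 8-9 weeks, ad libitum fed, given compound (30 or 100 nmol/2 mL in 10% DMSO saline) s.c. at 2 mL/kg once daily for 3 days. Cumulative 3-day food consumption measured by weighing; suppression rate (%) calculated relative to vehicle controls.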

Square brackets hold non-standard residues; d marks the D form. Side chains are listed from the residue outwards. Peptide text beside a SMILES is read from it. * marks the point of attachment. C18 diacid = O=C(O)CCCCCCCCCCCCCCCCC(=O)*; Phe(2-F) = N[C@@H](Cc1ccccc1F)C(=O)O; NMeY = CN[C@@H](Cc1ccc(O)cc1)C(=O)O; Palmitoyl = CCCCCCCCCCCCCCCC(=O)*; αMeF = C[C@](N)(Cc1ccccc1)C(=O)O; Iva = CC[C@](C)(N)C(=O)O; Aib = CC(C)(N)C(=O)O

The EC50 is the concentration giving half of the maximal effect. Turning to `CC[C@H](C)[C@H](NC(=O)C(C)(C)NC(=O)[C@H](CCCCNC(=O)CNC(=O)CNC(=O)CNC(=O)CNC(=O)CCCCCCCCCCCCCCCCC(=O)O)NC(=O)[C@H](CC(=O)O)NC(=O)[C@H](CO)NC(=O)[C@@H](NC(=O)[C@](C)(Cc1ccccc1)NC(=O)[C@@H](NC(=O)CNC(=O)[C@H](CCC(=O)O)NC(=O)C(C)(C)NC(=O)[C@@H](N)Cc1ccc(O)cc1)[C@@H](C)O)[C@@H](C)O)C(=O)NC(C)(C)C(=O)N[C@@H](CC(C)C)C(=O)N[C@@H](CC(=O)O)C(=O)N[C@@H](CCCCN)C(=O)N[C@@H](CCC(N)=O)C(=O)N[C@@H](C)C(=O)N[C@@H](CCC(N)=O)C(=O)N[C@@](C)(CC)C(=O)N[C@@H](CCC(=O)O)C(=O)N[C@@H](Cc1ccccc1)C(=O)N[C@H](C(=O)N[C@@H](CCCNC(=N)N)C(=O)N[C@@H](Cc1c[nH]cn1)C(=O)N[C@@H](CC(C)C)C(=O)N[C@@H](CC(C)C)C(=O)N[C@@H](CC(N)=O)C(=O)N[C@@H](CCCCN)C(=O)NC(C)(C)C(=O)N[C@H](C(=O)N[C@@H](CCCNC(=N)N)C(=O)N[C@@H](CCC(N)=O)C(=O)N[C@@H](CCCNC(=N)N)C(=O)N[C@@H](Cc1ccc(O)cc1)C(N)=O)[C@@H](C)O)C(C)C` [Example 28] (H-Y[Aib]EGT[αMeF]TSDK([Gly-Gly-Gly-Gly-C18 diacid])[Aib]I[Aib]LDKQAQ[Iva]EFVRHLLNK[Aib]TRQRY-NH2), the EC50 was found to be 2.4 nM on human NPY2R and 0.074 nM at human GIPR.
With `CC[C@H](C)[C@H](NC(=O)C(C)(C)NC(=O)[C@H](CCCCNC(=O)CNC(=O)CNC(=O)CNC(=O)CNC(=O)CCCCCCCCCCCCCCCCC(=O)O)NC(=O)[C@H](CC(=O)O)NC(=O)[C@H](CO)NC(=O)[C@@H](NC(=O)[C@](C)(Cc1ccccc1)NC(=O)[C@@H](NC(=O)CNC(=O)[C@H](CCC(=O)O)NC(=O)C(C)(C)NC(=O)[C@H](Cc1ccc(O)cc1)NC)[C@@H](C)O)[C@@H](C)O)C(=O)NC(C)(C)C(=O)N[C@@H](CC(C)C)C(=O)N[C@@H](CCC(=O)O)C(=O)N[C@@H](CCCCN)C(=O)N[C@@H](CCC(N)=O)C(=O)N[C@@H](CCCNC(=N)N)C(=O)N[C@@H](CCC(N)=O)C(=O)N[C@@](C)(CC)C(=O)N[C@@H](CCC(=O)O)C(=O)N[C@@H](Cc1ccccc1)C(=O)N[C@H](C(=O)N[C@@H](CCCNC(=N)N)C(=O)N[C@@H](Cc1c[nH]cn1)C(=O)N[C@@H](CC(C)C)C(=O)N[C@@H](CC(C)C)C(=O)N[C@@H](CC(N)=O)C(=O)N[C@@H](CCCCN)C(=O)NC(C)(C)C(=O)N[C@H](C(=O)N[C@@H](CCCNC(=N)N)C(=O)N[C@@H](CCC(N)=O)C(=O)N[C@@H](CCCNC(=N)N)C(=O)N[C@@H](Cc1ccc(O)cc1)C(N)=O)[C@@H](C)O)C(C)C` [Example 34] (H-[NMeY][Aib]EGT[αMeF]TSDK([Gly-Gly-Gly-Gly-C18 diacid])[Aib]I[Aib]LEKQRQ[Iva]EFVRHLLNK[Aib]TRQRY-NH2), in the assay on male C57BL/6J mouse (30 nmol/kg s.c. once a day for 3 days), the “Rate of feeding suppression (%)” value was −39.9%. Also, on human NPY2R, the EC50 is 1.5 nM.
As to `CC[C@H](C)[C@H](NC(=O)C(C)(C)NC(=O)[C@H](CCCCNC(=O)CNC(=O)CNC(=O)CNC(=O)CNC(=O)CCCCCCCCCCCCCCCCC(=O)O)NC(=O)[C@H](CC(=O)O)NC(=O)[C@H](CO)NC(=O)[C@@H](NC(=O)[C@](C)(Cc1ccccc1)NC(=O)[C@@H](NC(=O)CNC(=O)[C@H](CCC(=O)O)NC(=O)C(C)(C)NC(=O)[C@@H](N)Cc1ccc(O)cc1)[C@@H](C)O)[C@@H](C)O)C(=O)NC(C)(C)C(=O)N[C@@H](CC(C)C)C(=O)N[C@@H](CC(=O)O)C(=O)N[C@@H](CCCCN)C(=O)N[C@@H](CCC(N)=O)C(=O)N[C@@H](C)C(=O)N[C@@H](CCC(N)=O)C(=O)N[C@@](C)(CC)C(=O)N[C@@H](CCC(=O)O)C(=O)N[C@@H](Cc1ccccc1)C(=O)N[C@H](C(=O)N[C@@H](CCCNC(=N)N)C(=O)N[C@@H](Cc1c[nH]cn1)C(=O)N[C@@H](CC(C)C)C(=O)N[C@@H](CC(C)C)C(=O)N[C@@H](CC(N)=O)C(=O)N[C@@H](CCCCN)C(=O)NC(C)(C)C(=O)N[C@H](C(=O)N[C@@H](CCCNC(=N)N)C(=O)N[C@@H](CCC(N)=O)C(=O)N[C@@H](CCCNC(=N)N)C(=O)N[C@@H](Cc1ccccc1F)C(N)=O)[C@@H](C)O)C(C)C` [Example 2] (H-Y[Aib]EGT[αMeF]TSDK([Gly-Gly-Gly-Gly-C18 diacid])[Aib]I[Aib]LDKQAQ[Iva]EFVRHLLNK[Aib]TRQR[Phe(2-F)]-NH2), the “Rate of feeding suppression (%)” value with male C57BL/6J mouse (100 nmol/kg s.c. once a day for 3 days) is −77.3%. In addition, the EC50 on human NPY2R was 2.1 nM.
For the compound `CCCCCCCCCCCCCCCC(=O)NCC(=O)NCC(=O)NCC(=O)NCC(=O)NCCCC[C@H](NC(=O)[C@H](CC(=O)O)NC(=O)[C@H](CO)NC(=O)[C@@H](NC(=O)[C@](C)(Cc1ccccc1)NC(=O)[C@@H](NC(=O)CNC(=O)[C@H](CCC(=O)O)NC(=O)C(C)(C)NC(=O)[C@H](Cc1ccc(O)cc1)NC)[C@@H](C)O)[C@@H](C)O)C(=O)NC(C)(C)C(=O)N[C@H](C(=O)NC(C)(C)C(=O)N[C@@H](CC(C)C)C(=O)N[C@@H](CC(=O)O)C(=O)N[C@@H](CCCCN)C(=O)N[C@@H](CCC(N)=O)C(=O)N[C@@H](CCCNC(=N)N)C(=O)N[C@@H](CCC(N)=O)C(=O)N[C@@](C)(CC)C(=O)N[C@@H](CCC(=O)O)C(=O)N[C@@H](Cc1ccccc1)C(=O)N[C@H](C(=O)N[C@@H](CCCNC(=N)N)C(=O)N[C@@H](Cc1c[nH]cn1)C(=O)N[C@@H](CC(C)C)C(=O)N[C@@H](CC(C)C)C(=O)N[C@@H](CC(N)=O)C(=O)N[C@@H](CCCCN)C(=O)NC(C)(C)C(=O)N[C@H](C(=O)N[C@@H](CCCNC(=N)N)C(=O)N[C@@H](CCC(N)=O)C(=O)N[C@@H](CCCNC(=N)N)C(=O)N[C@@H](Cc1ccc(O)cc1)C(N)=O)[C@@H](C)O)C(C)C)[C@@H](C)CC` [Example 9] (H-[NMeY][Aib]EGT[αMeF]TSDK([Gly-Gly-Gly-Gly-Palmitoyl])[Aib]I[Aib]LDKQRQ[Iva]EFVRHLLNK[Aib]TRQRY-NH2), the EC50 amounted to 0.1 nM at human NPY2R and 0.068 nM on human GIPR.
